Assay results taken from patent US9408856B2, “Topical steroidal formulations” (Temple University—Of The Commonwealth System of Higher …, priority 2008, dated 2016).
Where “and” joins values, the source holds several entries; their conditions need not be identical. Equal entries are not always repeated.

Experiments:
[1] = tested on: TPA-stimulated epidermal DNA synthesis in mouse epidermis; experiment: TPA-induced epidermal DNA synthesis in mouse epidermis, transdermal fluasterone; type: in vivo, CD-1 mice; details: 20 h
[2] = tested on: TPA-stimulated epidermal DNA synthesis in mouse epidermis; experiment: TPA-induced epidermal DNA synthesis in mouse epidermis, oral fluasterone; type: in vivo, CD-1 mice; details: 20 h
Experimental: In dose-response experiments the anti-hyperplastic efficacy of fluasterone in TPA-treated mouse epidermis to determine bioavailability following different routes of administration was measured. Mice were treated with a single dose of fluasterone (either orally, subcutaneously, or transdermally) followed by a single application of TPA to the shaved back one hour latter. In case of transdermal administration, fluasterone is applied in a topical formulation to the shaved abdomen to allow for systemic absorption to the back of the animal. Twenty hours after TPA application, the mice are injected with 60 μCi of [3H] thymidine, sacrificed 20 minutes later, and a 2×2 cm2 of skin from the shaved back is excised and processed for the determination of the amount of [3H] thymidine incorporated per unit of epidermal DNA. (Hennings et. al., Cancer Res. 28:543-552, 1968).
Fluasterone suspensions were prepared using sesame oil as vehicle. Micronized fluasterone was obtained from Pharmaceutics International, Inc. Five suspensions were prepared—100 mg/kg (13 mg/mL), 200 mg/kg (26.5 mg/mL), 400 mg/kg (52.4 mg/mL), 800 mg/kg (105.5 mg/mL), and 1200 mg/kg (158.3 mg/mL). The fluasterone for each suspension was weighed, placed into a plastic vial, and the required volume of sesame oil was added to the vial. The fluasterone was suspended in the sesame oil with the use of a Tekmar Tissumizer. Magnetic stirrer bars were added to the various suspensions which were stirred on a magnetic stirrer prior to treatment. Control and TPA groups received sesame oil alone.
Female CD-1 mice were obtained from Charles River Laboratories, Wilmington, Mass. at 35-37 days of age.
The mice were housed three per cage in plastic shoebox cages on Alphacel bedding with 12 hours of alternating light and dark in the CAF Animal Facility. The mice had ad libitum access to Purina 5.015 chow and acidified tap water (pH≦2.6). The mice were shaved, weighed and distributed into groups of three. • Control The mice were treated orally with 0.2 mL of sesame oil. One hour after treatment with sesame oil, the mice were treated topically with 0.2 mL of acetone. • TPA The mice were treated orally with 0.2 mL of sesame oil. […] One hour after treatment with fluasterone, the mice were treated topically with 2 μg of TPA in 0.2 mL of acetone.
The mice were sacrificed 20 hours after treatment by an overdose of CO2. Twenty minutes prior to sacrifice, the mice were injected with 60 μCi of [^3H]thymidine (Amersham). The mice were treated with a depilatory to remove any residual hair. A 2×2 cm^2 piece of skin was excised, placed in ice water for 30 seconds, then in 55° C. water for 30 seconds, then in ice water again for 30 seconds. The epidermis was s raped off using a scalpel and the scrapings were placed into ice cold 0.4N TCA. The scrapings were homogenized using a Tekmar Tissumizer (80% power for 30 seconds). The homogenates were centrifuged for 20 minutes at 3,000×g. The precipitates were washed 3× with 0.2N TCA. The TCA was removed and the precipitates were stored at −20° C. overnight. The next day, the precipitates were washed 2× with absolute ethanol. The DNA in each sample was hydrolyzed with 0.5N TCA for 30 minutes at 90°. The tubes were centrifuged for 20 minutes at 3000×g. A 0.2 mL aliquot of each hydrolysate was counted in a LKB Rackbeta scintillation counter using Scintiverse II BD as the counting medium. DNA content was determined by the Burton diphenylamine assay.
102.7 mg of Micronized fluasterone I was weighed using a Mettler AE-50 balance, transferred to a glass scintillation vial, and homogenized in 6.0 mL of carboxymethylcellulose-Tween 80 using a Tekmar Tissumizer (200 mg/kg micronized I suspension, 200 MI). 88.4 mg of micronized fluasterone II was then weighed, transferred to a glass scintillation vial, and homogenized in 5.2 mL of CMC-Tween using a Tekmar Tissumizer (200 mg/kg micronized II suspension, 200 MII).

[3] = TPA 2 μg (back) after Cremophor EL vehicle only, single mice
[4] = TPA 2 μg (back) after Cremophor EL:ethanol (50:50 v/v) vehicle only, single mice
[5] = TPA 2 μg (back) after Tween 80:ethanol (50:50 v/v) vehicle only, single mice
[6] = TPA 2 μg (back) after carbitol vehicle only, single mice
[7] = TPA 2 μg (back) after ethanol:limonene:isopropyl myristate (81:15:4) vehicle only, single mice
[8] = TPA 2 μg (back) after ethanol:limonene:isopropyl myristate (81:15:4) vehicle only, single mice and group mean
[9] = TPA 2 μg (back) after ethanol:water:Tween 80 (76:19:5) vehicle only, single mice
[10] = TPA 2 μg (back) after ethanol:water:Tween 80 (76:19:5) vehicle only, single mice and group mean
[11] = Table 18, TPA 2 μg topical after CMC-Tween p.o. only, single mice

## CCCCCCCCCCCCCC(=O)O[C@@H]1[C@@H](C)[C@@]2(O)[C@@H](C=C(CO)C[C@]3(O)C(=O)C(C)=C[C@@H]23)[C@@H]2C(C)(C)[C@]12OC(C)=O [TPA, 12-O-tetradecanoylphorbol-13-acetate, reference compound]
[1]; [3]
  corrected cpm: 16,842 cpm and 13,849 cpm
  cpm: 16,877 cpm and 13,884 cpm
  μg DNA/0.2 mL: 28.7 μg DNA/0.2 mL and 30.4 μg DNA/0.2 mL
[1]; TPA 2 μg (back) after Cremophor EL vehicle only, single mice and group mean
  cpm/μg DNA: 586.8 cpm/μg DNA and 455.6 cpm/μg DNA and 521.2 ± 92.8 cpm/μg DNA
[1]; [4]
  corrected cpm: 54,709 cpm and 54,308 cpm
  cpm: 54,744 cpm and 54,343 cpm
  μg DNA/0.2: 36.9 μg DNA/0.2 and 35.7 μg DNA/0.2
[1]; TPA 2 μg (back) after Cremophor EL:ethanol (50:50 v/v) vehicle only, single mice and group mean
  cpm/μg DNA: 1,482.6 cpm/μg DNA and 1,521.2 cpm/μg DNA
[1]; [5]
  corrected cpm: 4,276 cpm and 3,114 cpm
  cpm: 4,301 cpm and 3,139 cpm
  μg DNA/0.2: 17.5 μg DNA/0.2 and 18.6 μg DNA/0.2
[1]; TPA 2 μg (back) after Tween 80:ethanol (50:50 v/v) vehicle only, single mice and group mean
  cpm/μg DNA: 244.3 cpm/μg DNA and 167.4 cpm/μg DNA
[1]; [6]
  corrected cpm: 6,729 cpm and 7,496 cpm
  cpm: 6,764 cpm and 7,531 cpm
  μg DNA/0.2 mL: 20.3 μg DNA/0.2 mL and 21.2 μg DNA/0.2 mL
[1]; [7]
  corrected cpm: 8,545 cpm and 11,109 cpm
  cpm: 8,574 cpm and 11,138 cpm
[1]; [8]
  cpm/μg DNA: 277.4 cpm/μg DNA and 322.0 cpm/μg DNA
  μg DNA/0.2 mL: 30.8 μg DNA/0.2 mL and 34.5 μg DNA/0.2 mL
[1]; [9]
  corrected cpm: 7,274 cpm and 6,557 cpm
  cpm: 7,303 cpm and 6,586 cpm
[1]; [10]
  cpm/μg DNA: 208.4 cpm/μg DNA and 186.3 cpm/μg DNA
  μg DNA/0.2 mL: 34.9 μg DNA/0.2 mL and 35.2 μg DNA/0.2 mL
[2]; Table 4, TPA 2 μg topical, sesame oil p.o. only, 2×2 cm2 skin, group mean
  μg DNA: 14.1 ± 1.3 µg
[2]; Table 4, TPA 2 μg topical, sesame oil p.o. only, group mean
  cpm/μg DNA: 641.5 ± 115.2 cpm/μg DNA
[2]; [11]
  corrected cpm: 9,877 cpm and 8,235 cpm and 8,699 cpm
  μg DNA/0.2 ml: 28.0 μg DNA/0.2 ml and 31.9 μg DNA/0.2 ml and 28.2 μg DNA/0.2 ml
[2]; Table 18, TPA 2 μg topical after CMC-Tween p.o. only, single mice and group mean
  cpm/μg DNA: 351.6 cpm/μg DNA and 258.6 cpm/μg DNA and 308.5 cpm/μg DNA
[2]; Table 18, TPA 2 μg topical after CMC-Tween p.o. only, single mice and group mean, group mean
  cpm/μg DNA: 306.1 ± 46.8 cpm/μg DNA
[2]; Table 20, TPA 2 μg topical after sesame oil and suspension vehicle p.o. only, group mean
  μg DNA: 13.9 ± 0.3 µg
